Assays:
[1] = biological target: T1, His6-TEV-PPARγ-(234-505) (Homo sapiens, UniProt P37231); assay: TR-FRET Assay to Measure Co-R Peptide Recruitment to PPARγ; type: biochemical; conditions: Co-R peptide (SMRT-ID2) recruitment; top final concentration 20 μM; read-out: TR-FRET i-Ag; AC50
T1 construct: The His6-TEV-PPARγ-(234-505) protein for assay was expressed and purified; TEV cleavage site (N); made in house
T1 sequence (P37231 234-505): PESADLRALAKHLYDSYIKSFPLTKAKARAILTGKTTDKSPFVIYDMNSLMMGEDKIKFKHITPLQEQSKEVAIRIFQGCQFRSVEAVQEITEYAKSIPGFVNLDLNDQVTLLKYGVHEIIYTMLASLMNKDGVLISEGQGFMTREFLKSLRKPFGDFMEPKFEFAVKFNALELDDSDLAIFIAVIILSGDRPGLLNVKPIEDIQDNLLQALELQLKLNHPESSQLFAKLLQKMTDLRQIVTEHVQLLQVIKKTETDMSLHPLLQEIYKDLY
How it was run: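 His-tagged PPARγ (or controls) was preincubated with compound for 20 minutes at room temperature, then 5 nM anti-His terbium antibody and 200 nM FITC-labeled SMRT-ID2 corepressor peptide (final) were added for a further hour. TR-FRET signal was normalized to percent response using 500 nM T0070907 and DMSO controls.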

[2] = test system: UM-UC-9 engineered cells; assay: Cell proliferation / short-term viability assay, CellTiter-Glo 144 h; type: cell-based, human; conditions: Homo sapiens, UM-UC-9, 144 h, read-out: CTGlo 144 h UMUC9.5, G150
How it was run: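 UM-UC-9 engineered assay-ready cells seeded at 500 cells/well in high-glucose DMEM/10% FBS, treated from dose-response plates, grown at 37° C, 5% CO2. CellTiter-Glo 2.0 luminescence read on day 7, with a day-0 pretreatment plate as T0 reference and DMSO wells as negative control.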

SMILES	AC50 [1]	IC50 [2]
COc1cc(-c2cc(C(=O)N3CC[C@H](C(=O)NC4CCC5(CCCN5)CC4)CC34CC4)n[nH]2)c(F)cn1 (stereo partly drawn) [Example 348, (S)-4-(5-(5-fluoro-2-methoxypyridin-4-yl)-1H-pyrazole-3-carbonyl)-N-(1-azaspiro[4.5]decan-8-yl)-4-azaspiro[2.5]octane-7-carboxamide]	305 nM	> 10000 nM
COc1cc(-c2cc(C(=O)N3CC[C@H](C(=O)NC4CCC5(CCCN5C5COC5)CC4)CC34CC4)n[nH]2)c(F)cn1 (stereo partly drawn) [Example 349, (S)-4-(5-(5-fluoro-2-methoxypyridin-4-yl)-1H-pyrazole-3-carbonyl)-N-(1-(oxetan-3-yl)-1-azaspiro[4.5]decan-8-yl)-4-azaspiro[2.5]octane-7-carboxamide]	187 nM	836 nM
COc1cc(-c2cc(C(=O)N3CC[C@H](C(=O)N[C@H]4CC[C@@](OCCN)(C(F)(F)F)CC4)CC34CC4)n[nH]2)c(F)cn1 [Example 350, (S)—N-((1r,4S)-4-(2-aminoethoxy)-4-(trifluoromethyl)cyclohexyl)-4-(5-(5-fluoro-2-methoxypyridin-4-yl)-1H-pyrazole-3-carbonyl)-4-azaspiro[2.5]octane-7-carboxamide]	5.3 nM	176 nM
COc1cc(-c2cc(C(=O)N3CC[C@H](C(=O)NC4CCC5(CCCN5CC(C)(F)F)CC4)CC34CC4)n[nH]2)c(F)cn1 (stereo partly drawn) [Example 351, (S)—N-(1-(2,2-difluoropropyl)-1-azaspiro[4.5]decan-8-yl)-4-(5-(5-fluoro-2-methoxypyridin-4-yl)-1H-pyrazole-3-carbonyl)-41-azaspiro[2.5]octane-7-carboxamide]	256 nM	450 nM
COc1cc(-c2cc(C(=O)N3CC[C@H](C(=O)N[C@H]4CC[C@@](OC[C@H](C)N)(C(F)(F)F)CC4)CC34CC4)n[nH]2)c(F)cn1 [Example 352, (S)—N-((1548)-4-((S)-2-aminopropoxy)-4-(trifluoromethyl)cyclohexyl)-4-(5-(5-fluoro-2-methoxypyridin-4-yl)-1H-pyrazole-3-carbonyl)-4-azaspiro[2.5]octane-7-carboxamide]	7.7 nM	134 nM
COc1cc(-c2cc(C(=O)N3CC[C@H](C(=O)N[C@H]4CC[C@@](OC[C@H](C)O)(C(F)(F)F)CC4)CC34CC4)n[nH]2)c(F)cn1 [Example 353, (S)-4-(5-(5-fluoro-2-methoxypyridin-4-yl)-1H-pyrazole-3-carbonyl)-N-((1S,4S)-4-((S)-2-hydroxypropoxy)-4-(trifluoromethyl)cyclohexyl)-4-azaspiro[2.5]octane-7-carboxamide]	6.6 nM	6 nM
COc1cc(-c2cc(C(=O)N3CC[C@H](C(=O)NC4CC5CCC(C4)O5)CC34CC4)n[nH]2)c(F)cn1 (stereo partly drawn) [Example 354, (7S)—N-(8-oxabicyclo[3.2.1]octan-3-yl)-4-(5-(5-fluoro-2-methoxypyridin-4-yl)-1H-pyrazole-3-carbonyl)-4-azaspiro[2.5]octane-7-carboxamide]	24.1 nM	28.6 nM
COc1cc(-c2cc(C(=O)N3CC[C@H](C(=O)NCc4ncccc4Cl)CC34CC4)n[nH]2)c(F)cn1 [Example 358, (S)—N-((3-chloropyridin-2-yl)methyl)-4-(5-(5-fluoro-2-methoxypyridin-4-yl)-1H-pyrazole-3-carbonyl)-4-azaspiro[2.5]octane-7-carboxamide]	5.1 nM	3.4 nM
COc1cc(-c2cc(C(=O)N3CC[C@H](C(=O)NCc4ncccc4C)CC34CC4)n[nH]2)c(F)cn1 [Example 359, (S)-4-(5-(5-fluoro-2-methoxypyridin-4-yl)-1H-pyrazole-3-carbonyl)-N-((3-methylpyridin-2-yl)methyl)-4-azaspiro[2.5]octane-7-carboxamide]	8 nM	19.9 nM
COc1cc(-c2cc(C(=O)N3CC[C@H](C(=O)NCc4ncc(F)cc4C)CC34CC4)n[nH]2)c(F)cn1 [Example 361, (S)-4-(5-(5-fluoro-2-methoxypyridin-4-yl)-1H-pyrazole-3-carbonyl)-N-((5-fluoro-3-methylpyridin-2-yl)methyl)-4-azaspiro[2,5]octane-7-carboxamide]	10.2 nM	17.8 nM
COc1cc(-c2cc(C(=O)N3CC[C@H](C(=O)NCc4ncc(F)cc4Cl)CC34CC4)n[nH]2)c(F)cn1 [Example 362, (S)—N-((3-chloro-5-fluoropyridin-2-yl)methyl)-4-(5-(5-fluoro-2-methoxypyridin-4-yl)-1H-pyrazole-3-carbonyl)-4-azaspiro[2.5]octane-7-carboxamide]	3.7 nM	8.7 nM
COc1cc(-c2cc(C(=O)N3CC[C@H](C(=O)NCc4ncc(F)cc4C(F)(F)F)CC34CC4)n[nH]2)c(F)cn1 [Example 363, (S)-4-(5-(5-fluoro-2-methoxypyridin-4-yl)-1H-pyrazole-3-carbonyl)-N-((5-fluoro-3-(trifluoromethyl)pyridin-2-yl)methyl)-4-azaspiro[2.5]octane-7-carboxamide]	6 nM	3.5 nM
COc1cc(-c2cc(C(=O)N3CC[C@H](C(=O)NCc4ncc(C(C)(C)O)cc4Cl)CC34CC4)n[nH]2)c(F)cn1 [Example 364, (S)—N-((3-chloro-5-(2-hydroxypropan-2-yl)pyridin-2-yl)methyl)-4-(5-(5-fluoro-2-methoxypyridin-4-yl)-1H-pyrazole-3-carbonyl)-4-azaspiro[2.5]octane-7-carboxamide]	13.1 nM	56.2 nM
COc1cc(-c2cc(C(=O)N3CC[C@H](C(=O)NCC45CC(C(F)(F)F)(CO4)C5)CC34CC4)n[nH]2)c(F)cn1 [Example 365, (S)-4-(5-(5-fluoro-2-methoxypyridin-4-yl)-1H-pyrazole-3-carbonyl)-N-((4-(trifluoromethyl)-2-oxabicyclo[2.1.1]hexan-1-yl)methyl)-4-azaspiro[2.5]octane-7-carboxamide]	10 nM	21.9 nM
COc1cc(-c2cc(C(=O)N3CC[C@H](C(=O)NCc4cn5c(n4)COCC5)CC34CC4)n[nH]2)c(F)cn1 [Example 371, (S)—N-((5,6-dihydro-8H-imidazo[2,1-c][1,4]oxazin-2-yl)methyl)-4-(5-(5-fluoro-2-methoxypyridin-4-yl)-1H-pyrazole-3-carbonyl)-4-azaspiro[2.5]octane-7-carboxamide]	36.4 nM	338 nM
COc1cc(-c2cc(C(=O)N3CC[C@H](C(=O)Nc4cnn5ccc(C)nc45)CC34CC4)n[nH]2)c(F)cn1 [Example 381, (S)-4-(5-(5-fluoro-2-methoxypyridin-4-yl)-1H-pyrazole-3-carbonyl)-N-(5-methylpyrazolo[1,5-a]pyrimidin-3-yl)-4-azaspiro[2.5]octane-7-carboxamide]	12.3 nM	5.8 nM
COc1cc(-c2cc(C(=O)N3[C@@H]4CC[C@H]3C[C@H](C(=O)NCc3ncc(F)cc3Cl)C4)n[nH]2)c(F)cn1 [Example 384, (1R,3s,5S)—N-((3-chloro-5-fluoropyridin-2-yl)methyl)-8-(5-(5-fluoro-2-methoxypyridin-4-yl)-1H-pyrazole-3-carbonyl)-8-azabicyclo[3.2.1]octane-3-carboxamide]	15.2 nM	82.1 nM
COc1cc(-c2cc(C(=O)N3CC[C@H](C(=O)NCc4nnccc4C)CC34CC4)n[nH]2)c(F)cn1 [Example 386, (S)-4-(5-(5-fluoro-2-methoxypyridin-4-yl)-1H-pyrazole-3-carbonyl)-N-((4-methylpyridazin-3-yl)methyl)-4-azaspiro[2.5]octane-7-carboxamide]	181 nM	231 nM
COc1cc(-c2cc(C(=O)N3CC[C@H](C(=O)NCc4nc(C)ncc4Cl)CC34CC4)n[nH]2)c(F)cn1 [Example 387, (S)—N-((5-chloro-2-methylpyrimidin-4-yl)methyl)-4-(5-(5-fluoro-2-methoxypyridin-4-yl)-1H-pyrazole-3-carbonyl)-4-azaspiro[2,5]octane-7-carboxamide]	14.4 nM	22.5 nM
COc1cc(-c2cc(C(=O)N3CC[C@H](C(=O)NCc4nccnc4Cl)CC34CC4)n[nH]2)c(F)cn1 [Example 388, (S)—N-((3-chloropyrazin-2-yl)methyl)-4-(5-(5-fluoro-2-methoxypyridin-4-yl)-1H-pyrazole-3-carbonyl)-4-azaspiro[2.5]octane-7-carboxamide]	11.4 nM	17.6 nM
COc1cc(-c2cc(C(=O)N3CC[C@H](C(=O)NCc4ncc(F)cc4OC)CC34CC4)n[nH]2)c(F)cn1 [Example 389, (S)-4-(5-(5-fluoro-2-methoxypyridin-4-yl)-1H-pyrazole-3-carbonyl)-N-((5-fluoro-3-methoxypyridin-2-yl)methyl)-4-azaspiro[2.5]octane-7-carboxamide]	10.3 nM	13 nM
COc1cc(-c2cc(C(=O)N3CC[C@H](C(=O)NCc4ncc(C#N)cc4Cl)CC34CC4)n[nH]2)c(F)cn1 [Example 391, (S)—N-((3-chloro-5-cyanopyridin-2-yl)methyl)-4-(5-(5-fluoro-2-methoxypyridin-4-yl)-1H-pyrazole-3-carbonyl)-4-azaspiro[2.5]octane-7-carboxamide]	19.5 nM	81.3 nM

From US12606541B2, “PPARg modulators and methods of use” (Eisai R&D Management Co., Ltd., priority 2020, dated 2026)
